Experimental data reported in patent US6372783B1, “Enantiomeric compounds for treatment of cardiac arrhythmias and methods of use” (Aryx Therapeutics, priority 1999, dated 2002).

Columns and labels:
Male Sprague-Dawley rats = assay: Anti-arrhythmic activity in anesthetized rats (benzene/adrenaline challenge; VPB, heart rate, EKG intervals); type: in vivo, rat; settings: for protection against adrenaline-induced tachyarrhythmia / tachycardia (heart rate): drug administered time 0 to 120 minutes; for PR interval / QRS interval / QT interval / Heart rate (beats/minute) / Inhibition of tachycardia / Number of VPB / Inhibition of VPB: isolated enantiomer as compared to respective racemate; for PR interval / QRS interval / QT interval: EKG; for Heart rate (beats/minute) / Inhibition of tachycardia: adrenaline injection; for Number of VPB / Inhibition of VPB: benzene/adrenaline challenge; for Inhibition of VPB: 4 mg/kg i.v. then 12 mg/kg/h for 2 hours; for VPB-inhibiting activity at the end of the washout period: time 180 min; for inhibition of the formation of ventricular premature beats (VPB) during drug administration: whole period of drug administration (time 0 to 120 min)
Method: Anti-arrhythmic Activity in Anesthetized Rats.
Male Sprague-Dawley rats with body weights of 410±30 g (Harlan Sprague Dawley Inc., Indianapolis, Ind.), were anesthetized with sodium pentobarbital (50 mg/kg i.p.—Butler Co., Columbus, Ohio). The skin from the neck area was removed and the jugular veins on both sides were cleared of connective tissue. Both jugular veins and the left carotid artery were isolated, and the latter tied up cranially with a surgical silk (ETHICON 4-0, Ethicon Inc., Australia). A plastic catheter ([…] 19 ga, Vecton Dickinson, Sandy, Utah), filled with a solution containing 10% sodium heparin (Elkins-Sinn Inc., Cherry Hill, N.J.) in normal saline (100 U/ml sodium heparin), was introduced into the artery and fixed with surgical silk.
The catheter was connected to a pressure transducer (OHMEDA P23-XL, Ohmeda Medical Devices Division Inc., Madison, Wis.), filled with the same heparinized 0.9% NaCl solution, to register beat-to-beat arterial pressure. Needle electrodes were inserted s.c., and together with the pressure transducer, were joined to a GOULD TA 2000 recorder. Leads II, aVF and intraarterial blood pressure were monitored simultaneously throughout the experiments and recorded at certain intervals at 50 and 200 mm/sec paper speed.
The surgery was completed with an incision on the trachea where a short plastic tubing was placed and the animal was connected to a rodent-model ventilator (HARVARD Model 683, Harvard Apparatus, Inc., Holliston, Mass.). The animals were ventilated in a controlled way, depending on their spontaneous breathing frequency (55-75/min).
Drug administrations were carried out through i.v. catheters (TERUMO 24 GA*¾″, Terumo Medical Corp., Elkton, Md.) inserted into both jugular veins. The left side was used for drug infusions by means of a syringe pump (SAGE INSTRUMENTS, Model 341B, Orion Res. Inc., Boston, Mass.), and the right side was used for adrenaline injections. The experiments were started after at least 15 minutes of stabilization. Benzene/adrenaline challenges were performed as follows: the respirator inlet was connected to a 50-ml bubbler half-full with benzene (Fisher Scientific, Fair Lawn, N.J.) so that the inspired air was saturated with benzene vapor. The animal was ventilated with benzene vapor for two minutes. The tidal volume was typically 1 ml/100 g of animal. During the last 30 seconds of benzene ventilation, 10 μg/kg adrenaline solution (in 0.9% NaCl) was injected into the right jugular vein. […] These arrhythmias could be elicited repeatedly. After three control VTs (at −30, −20 and −10 minutes), the test compounds were injected slowly during 30 seconds at a dose of 4 mg/kg i.v., immediately followed by a slow infusion of 12 mg/kg/h for 2 hours. The flow rate during the infusion period was 1 ml/h.
There were 5 rats per test compound and each animal served as its own control. The ability of the different drugs to suppress arrhythmias was tested against repeated benzene/adrenaline challenges at 5, 15, 30,45, 60, 90, 120 (end of drug infusion), 135, 150, 165 and 180 minutes after the i.v. bolus injection. The amplitudes of the systolic arterial pressure and diastolic arterial pressure […] with the help of a pressure-amplitude calibration curve. Heart rate, number of ventricular complexes during the occurrence of VTs and VPBs, and certain ECG parameters (PR, QRS, QT durations and RR cycle lengths in msec) were also recorded and measured manually. At each time-point, 3-5 cycles were measured and the average values were entered into EXCEL Windows 97. The average and standard deviation for the five experimental animals per compound were calculated.

[1] = Half-life in human plasma in vitro; type: in vitro ADME; settings: for half-life in human plasma: 37° C.
Method: Half-life in Human Plasma in Vitro.
Venous blood (60 ml) was collected in heparinized 1 5-ml Vacutainer® tubes from the forearm of five human volunteers. Each tube contained 1,000 units of heparin sodium salt. The blood was immediately centrifuged at 2,000 g for 10 minutes and the plasma was collected. Immediately after collection, the plasma was divided into 2-ml aliquots in borosilicate glass tubes (5-ml capacity) capped with a plastic stopper. The tubes were then equilibrated in a 37° C.-water bath for at least 15 minutes before the test samples were added.
Stock solutions were prepared by dissolving 25 μmoles (about 18 mg) of each of the test compounds in 10 ml of deionized water. To each of the glass tubes containing 2 ml of fresh plasma, equilibrated at 37° C., was added 40 μl of the stock solutions (one test compound per tube). The plasma/stock solutions were then mixed. Samples (250 μl) were collected at time 0 (immediately after mixing test compounds in plasma) and then at 30, 60, 90, 120, 180, 240, and 300 minutes. The test tubes were capped, to avoid concentration due to evaporation, and left in the 37° C. bath during the entire experiment. Each aliquot was immediately introduced into a 1.5-ml microfuge tube containing 20 μl of a 0.01% solution of diethyl paranitrophenylphosphate (paraoxon) in ethanol in order to inhibit esterase activity. The tubes were then capped and vortexed, then kept at −20° C. until analysis. The samples were thawed and mixed with 750 μl of a 0.1% solution of trifluoroacetic acid (TFA) in acetonitrile, vortexed for thorough mixing, and then centrifuged at 12,000 g for 15 minutes. The supernatant was collected for injection in the HPLC system.
The HPLC mobile phase consisted of acetonitrile and water containing 0.1% TFA and 400 mg/L benzyltriethylammoniumchloride (BTEAC) in the following proportions and flow rates: 85% acetonitrile and 15% water at 2.0 ml/min. The detection wavelength was set at 242 nm, and the injected volume was 100 μL. The HPLC peaks were recorded, and the integrated values were plotted against time using the SIGMAPLOT software version 4.0 for WINDOWS. The resulting curves were fitted to a first-order exponential decay equation from which hydrolysis half-lives were calculated.

[2] = benzene vapors and adrenaline challenge

SMILES	protection against adrenaline-induced tachyarrhythmia / tachycardia (heart rate) (Male Sprague-Dawley rats; comparison of the forms)	metabolism in human plasma [1]	PR interval (Male Sprague-Dawley rats; anesthetized rats)	QRS interval (Male Sprague-Dawley rats; anesthetized rats)	QT interval (Male Sprague-Dawley rats; anesthetized rats)	Heart rate (beats/minute) (Male Sprague-Dawley rats; anesthetized rats)	Inhibition of tachycardia (Male Sprague-Dawley rats; anesthetized rats)	Number of VPB (Male Sprague-Dawley rats; anesthetized rats)	Inhibition of VPB (Male Sprague-Dawley rats; anesthetized rats)	VPB-inhibiting activity at the end of the washout period (Male Sprague-Dawley rats)	inhibition of the formation of ventricular premature beats (VPB) during drug administration (Male Sprague-Dawley rats; [2])	half-life in human plasma [1] [h]	effect on QT segment / interval of the EKG (Class-III properties), potency (Male Sprague-Dawley rats; anesthetized rats, comparison of the forms)	anti-arrhythmic activity (VPB inhibition) of the racemate relative to the enantiomers (Male Sprague-Dawley rats; [2])
CC[C@H](C)OC(=O)Cc1oc2ccccc2c1C(=O)c1cc(I)c(OCCN(CC)CC)c(I)c1 [ATI-2042]	very good protection	metabolized in human plasma by esterase enzymes												
CCN(CC)CCOc1c(I)cc(C(=O)c2c(CC(=O)OC(C)C(C)C)oc3ccccc23)cc1I (stereo not shown) [ATI-2055]	inhibits the tachycardia	metabolized in human plasma by esterase enzymes												
CC[C@@H](C)OC(=O)Cc1oc2ccccc2c1C(=O)c1cc(I)c(OCCN(CC)CC)c(I)c1 [Compound R-2042, (R)-sec-Butyl2-[3-(3,5-diiodo-4-(2-diethylaminoethyloxy)benzoyl)]benzofurane-acetate]			shorter	no change	no change	lower	longer	lower	longer	completely inactive				
CCN(CC)CCOc1c(I)cc(C(=O)c2c(CC(=O)O[C@H](C)C(C)C)oc3ccccc23)cc1I [Compound R-2055, (R)-(3-Methyl)-2butyl 2-[3-(3,5-diiodo-4-(2-diethylaminoethyloxy)benzoyl)]benzo-furaneacetate]			shorter	longer	no change	lower	longer	lower	longer	still retained part of its activity	totally inhibited	11.7		
CC[C@H](C)OC(=O)Cc1oc2ccccc2c1C(=O)c1cc(I)c(OCCN(CC)CC)c(I)c1 [Compound S-2042, (S)-sec-Butyl2-[3-(3,5-diiodo-4-(2-diethylaminoethyloxy)benzoyl)]benzofurane-acetate]			longer	longer	longer	lower	longer	lower	longer	still retained part of its activity	totally inhibited		most potent and the longest acting	
CCN(CC)CCOc1c(I)cc(C(=O)c2c(CC(=O)O[C@@H](C)C(C)C)oc3ccccc23)cc1I [Compound S-2055, (S)-(3-Methyl)-2butyl 2-[3-(3,5-diiodod-4-(2-diethylaminoethyloxy)benzoyl)]benzo-furaneacetate]			shorter	longer	no change	lower	longer	lower	longer	completely inactive		8.8		
CC[C@H](C)OC(=O)Cc1oc2ccccc2c1C(=O)c1cc(I)c(OCCN(CC)CC)c(I)c1 [R,S-2042]	least potent and shortest acting													even less active than either the R- or the S-isomer
